One series has as its system Propionibacterium acnes. Nature of the series: MIC test of P. acnes (broth dilution, OD595). It is filed as cell-based. More on the design: key: +: Growth Inhibition; —: No Growth Inhibition. Conditions: anaerobic, 37° C., 96 hours. The protocol: Prepared DM stock solution in 500,000 ppm (50%). Added 0.25 g DM into […] DMSO and stirred until mixed well. Then serial diluted 500,000 ppm DM. Centrifuged 5 ml Propionibacterium acnes in RCM (Reinforced Clostridial Medium) culture. Adjusted concentration of bacteria cell in medium by 20 times dilution about OD595=0.1×10^6 CFU/ml. Dispersed 200 μl bacteria cell in medium in aliquot to each 96-well plate. Mixed medium including bacteria cell and 2 μl DM, triplicate tests at each concentration. Bacteria cultured under anaerobic at 37° C. for 96 hours and measured the value at OD595. MIC meant the lowest concentration of anti-bacterial agent that sufficient to suppress the growth of bacteria (e.g. growth inhibition).
For orientation: Broth dilution looks for growth in wells or tubes with falling amounts of substance.

The test system of a further series is P. acnes. Briefly: DM disc diffusion on P. acnes lawn. In kind it is cell-based, Propionibacterium acnes. To be noted: 37° C., 96 hours. The protocol:
Spread 0.1 ml medium including bacteria cells which OD595 value was about 0.1×10^6 CFU/ml onto RCM agar plate. Pasted 0.8 cm filter paper and dropped 20 μl of DM into it. Bacteria were cultured under anaerobic at 37° C. for 96 hours and the size of the antibiotic circle was measured.
(In general: Agar diffusion results depend on both activity and mobility in agar.)

A further series relates to Bacteroides fragilis. Nature of the series: MIC test of B. fragilis (thioglycollate broth). More on the design: key: +: Growth Inhibition; —: No Growth Inhibition. Conditions: anaerobic, 24 h. In kind it is cell-based. The protocol: Bacteroides fragilis growing in 18-24 hours in the anaerobic thioglycollate broth was used to formulate the suspension of bacteria cells of McFarland 0.5. Diluted 0.5 g/ml DMSO stock solution with anaerobic Thioglycollate broth. Added 1000 μl anaerobic Thioglycollate broth into 1000 μl of DM diluent with 1:1 ratio, and then put into the anaerobic incubator to incubate for 24 h.

The next series deals with E. coli. Nature of the series: DM disc diffusion on E. coli lawn. It is filed as cell-based. Conditions: 37° C., 96 hours. The protocol:
Base for antimicrobial disk diffusion Susceptibility Testing is made of Mueller Hinton II agar obtained from Becton, Dickinson and Company, France.
Prepared Mueller-Hinton-II-agar by suspending 38 g of the powder in 1L of double-distilled water. Autoclaved the agar at 121° C. for 15 min. t The agar was poured into each agar plate and waited for solidifying. E. coli of 1×10^5 CFU in 100 μl medium was spread on to the agar plate and were grown for 96 hours.

Another series has as its system Staphylococcus aureaus. Nature of the series: DM disc diffusion on S. aureus lawn. In kind it is cell-based. To be noted: S. aueaus lawn, 37° C., 96 hours. The protocol:
Based for antimicrobial disk diffusion Susceptibility Testing is Mueller Hinton II agar obtained from Becton, Dickinson and Company, France.
Prepared Mueller-Hinton-II-agar by suspending 38 g of the powder in 1L of double-distilled water. Autoclaved the agar at 121° C. for 15 min. The agar was poured into each agar plate and waited for solidifying. S. aureaus of 10^5 CFU in 100 μl medium were spread on the agar plate and were grown for 96 hours.

In a further series the test system is TNF-α. Nature of the series: LPS-induced macrophage release of TNF-α (THP-1, ELISA). It is filed as cell-based, human. Conditions: for concentration of TNF-α in the medium of THP-1 cells after LPS stimulation: pretreated 1 hour, various concentrations, then LPS 24 hours. The procedure:
(§1) The monocytic THP-1 cells were cultured and differentiated into macrophages. The macrophages were pretreated with various concentrations of Dextromethophan or naloxone for 1 hour and subsequently incubated with lipopolysaccharide (LPS) for 24 hours.
(§2) RPMI 1640 medium, phorbol 12-myristate-13-acetate (PMA), LPS (Escherichia coli 0111:B4) and naloxone were purchased from Sigma. The human THP-1 monocytic cell line was purchased from Food Industry Research and Development Institute, Hsin Chu, Taiwan. Levels of tumor necrosis factor-α (TNF-α), interleukin-6 (IL-6) and monocyte chemoattractant protein-1 (MCP-1) in medium were determined with monoclonal antibody based ELISA kits purchased from R&D Systems (Minneapolis, Minn., USA), and all animal experiments were approved by the Institutional Animal Care and Use Committee.
The THP-1 cells were grown in RPMI-1640 medium containing 10% fetal bovine serum at 37° C. in 5% CO2. The cells were differentiated to macrophages after treatment with 100 nM PMA to the culture for 24 hours. The cell suspension (5×10^5) was added in 0.5 mL into each well of the tissue culture plates. LPS was dissolved in sterile water and stored at −70[…] in aliquots. In treatment group, the THP-1 cell culture was pretreated for 1 hour with various concentrations of dextromethorphan or naloxone and followed by treatment with 10 μg/mL LPS for up to 24 hours. […] The levels of TNF-α, IL-6 and MCP-1 in the supernatants were determined using ELISA kits.
The inflammatory reaction can be inhibited by dextromethorphan at less than 0.01 μM. The THP-1 cell treated with LPS at 1 Unit/ml in the presence of dextromethorphan for 24 hrs and the TNF-α and IL-6 released in the culture medium was measured with ELISA (FIG. 1). […] The results are expressed as mean±SD of 3 experiments. ** p<0.01 and *** p<0.001 are compared with the LPS-treated cultures.
(§3) Effect of naloxone treatment on the LPS-induced macrophage release of TNF-α (A), IL-6 (B) and MCP-1 (C). […] The results are expressed as mean±SD of 3 experiments. * p<0.05; ** p<0.01; *** p<0.001 compared with the LPS-treated cultures (FIG. 2).
(An ELISA detects its analyte on a solid surface through an enzyme-linked reagent.)

Another series has as its system IL-6. Nature of the series: LPS-induced macrophage release of IL-6 (THP-1, ELISA). In kind it is cell-based, human. Conditions: pretreated 1 hour, various concentrations, then LPS 24 hours. The protocol: as §1, §2
The THP-1 cells were grown in RPMI-1640 medium containing 10% fetal bovine serum at 37° C. in 5% CO2. […] The levels of TNF-α, IL-6 and MCP-1 in the supernatants were determined using ELISA kits.
The inflammatory reaction can be inhibited by dextromethorphan at less than 0.01 μM. The THP-1 cell treated with LPS at 1 Unit/ml in the presence of dextromethorphan for 24 hrs and the TNF-α and IL-6 released in the culture medium was measured with ELISA (FIG. 1). […] The results are expressed as mean±SD of 3 experiments. ** p<0.01 and *** p<0.001 are compared with the LPS-treated cultures. […]

A further series concerns MCP-1. Nature of the series: LPS-induced macrophage release of MCP-1 (THP-1, ELISA). In kind it is cell-based, human. To be noted: pretreated 1 hour, various concentrations, then LPS 24 hours. The protocol: as §1, §2
The THP-1 cells were grown in RPMI-1640 medium containing 10% fetal bovine serum at 37° C. in 5% CO2. The cells were differentiated to macrophages after treatment with 100 nM PMA to the culture for 24 hours. […] The levels of TNF-α, IL-6 and MCP-1 in the supernatants were determined using ELISA kits.
as §3

In the next series the test system is TNF-a. To be noted: LPS-induced endotoxemia in rodents; mitigation of circulatory failure and mortality; cited from earlier work.
The conditions of series [1]: humans, oral dosage form, either alone or with quinidine; cited from earlier work.

In the case of `COc1ccc2c(c1)[C@]13CCCC[C@@H]1[C@H](C2)N(C)CC3` [DM, (+)-3-methoxy-17-methyl-9a,13a,14a-morphinan], the “Growth Inhibition” value is “—” in the series with Propionibacterium acnes (DM 125 ppm (0.0125%)); “—” in the series on Propionibacterium acnes (DM 250 ppm (0.025%)); “+” in the series on Propionibacterium acnes (DM 500 ppm (0.05%)); “+” in the series with Propionibacterium acnes (DM 1000 ppm (0.1%)); “+” with Propionibacterium acnes (DM 1250 ppm (0.125%)); “+” in the series on Propionibacterium acnes (DM 2500 ppm (0.25%)). The “Growth Inhibition” value in the series with Propionibacterium acnes (DM 5000 ppm (0.5%)) is “+”; in the series with Bacteroides fragilis (DM 500 ppm (0.05%)), “—”; in the series on Bacteroides fragilis (DM 1000 ppm (0.1%)) it was “—”; in the series on Bacteroides fragilis (DM 1250 ppm (0.125%)), “+”; in the series on Bacteroides fragilis (DM 2500 ppm (0.25%)), “+”; with Bacteroides fragilis (DM 5000 ppm (0.5%)), “+”. Further, the “Diameter of clear zone” value with P. acnes (2.5% DM, Disc No. 6, anaerobic) came out at 12 mm; in the series on P. acnes (5% DM, Disc No. 5, anaerobic), 34 mm; with E. coli (2.5% DM), 9.5 mm; in the series with E. coli (5% DM), 13 mm; with E. coli (10% DM), 18 mm; in the series on Staphylococcus aureaus (5% DM), 10 mm. Further, the “Diameter of clear zone” value with Staphylococcus aureaus (10% DM) stood at 14 mm. Also, the “concentration at which the inflammatory reaction can be inhibited” value in the series on TNF-α (THP-1 cell treated with LPS for 24 hrs, TNF-α and IL-6 released in medium measured with ELISA) was “less than 0.01 μM”. Moreover, the “concentration of TNF-α in the medium of THP-1 cells after LPS stimulation” value in the series on TNF-α is “significantly reduced”. The “concentration of IL-6 in the medium of THP-1 cells after LPS stimulation” value in the series with IL-6 is given as “significantly reduced”. Also, in the series on MCP-1, the “concentration of MCP-1 in the medium of THP-1 cells after LPS stimulation” value is reported as “significantly reduced”. Also, in the series on TNF-a, the “effect on TNF-a, NO and superoxide anion” value was “inhibits”. In series [1], the “well tolerated oral dosage” value was “up to 120 milligrams (mg) per day”.
Turning to `Oc1cc(Cl)ccc1Oc1ccc(Cl)cc1Cl` [Triclosan], in the series on P. acnes (0.1% Triclosan, Disc No. 8, anaerobic), the “Diameter of clear zone” value was determined as 30 mm.
With `C=CCN1CC[C@]23c4c5ccc(O)c4O[C@H]2C(=O)CC[C@@]3(O)[C@H]1C5` [naloxone, 17-allyl-4,5α-epoxy-3,14-dihydroxymorphinan-6-one], the “concentration of TNF-α in the medium of THP-1 cells after LPS stimulation” value in the series on TNF-α is “significantly reduced”. Also, the “concentration of IL-6 in the medium of THP-1 cells after LPS stimulation” value in the series on IL-6 was “significantly reduced”. In the series with MCP-1, the “concentration of MCP-1 in the medium of THP-1 cells after LPS stimulation” value is “significantly reduced”.

The record behind these values is patent publication US7939567B2, “Dextromethorphan-based method for treating acne” (Blue Blood Biotech Corp., priority 2006, dated 2011).
